Measurements: PMC12317361, “Pharmacological Inhibition of c‐Jun N‐Terminal Kinase Activity Exacerbates Liver Damage in Schistosoma mansoni Infected Mice” (Liver International, 2025)

Target: SmJNK (S. mansoni c-Jun N-terminal kinase) (Schistosoma mansoni, UniProt A0A3Q0KT26)
Assay: cellular thermal shift assay (CETSA), isothermal dose-response fingerprint in SmJNK-expressing Sf21 cells
Assay type: cell-based

Sequence of SmJNK (S. mansoni c-Jun N-terminal kinase) (A0A3Q0KT26 entry or part of it): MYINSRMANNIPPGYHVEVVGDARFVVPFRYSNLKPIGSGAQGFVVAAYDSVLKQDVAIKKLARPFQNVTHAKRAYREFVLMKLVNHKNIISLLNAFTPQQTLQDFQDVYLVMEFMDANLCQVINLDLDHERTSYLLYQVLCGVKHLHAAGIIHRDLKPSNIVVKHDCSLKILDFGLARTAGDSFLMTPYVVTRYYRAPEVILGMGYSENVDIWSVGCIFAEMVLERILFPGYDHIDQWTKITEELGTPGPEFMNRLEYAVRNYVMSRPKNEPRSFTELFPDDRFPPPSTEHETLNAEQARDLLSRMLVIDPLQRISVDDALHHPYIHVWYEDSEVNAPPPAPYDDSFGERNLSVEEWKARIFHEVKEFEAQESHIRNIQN

SMILES: Oc1c2ccccc2c2c3c(cccc13)N=N2 [SP600125]
- Kd: 0.65 µM
